Assay results published in patent US20110282056A1, “PROTEIN KINASE INHIBITORS AND USE THEREOF” (priority 2008, published 2011).

Legend:
Format in all cases: biochemical
Flt3 = molecular target: T1, Flt3 (Homo sapiens, UniProt P36888); assay: Flt3 enzyme activity assay (Caliper LC3000 mobility shift); conditions: 350 uM ATP (Km), 3 nM Flt3, 90 minutes at RT
T1 construct: purchased BPS Bioscience; San Diego, Calif; 40225
T1 sequence (P36888 27-993): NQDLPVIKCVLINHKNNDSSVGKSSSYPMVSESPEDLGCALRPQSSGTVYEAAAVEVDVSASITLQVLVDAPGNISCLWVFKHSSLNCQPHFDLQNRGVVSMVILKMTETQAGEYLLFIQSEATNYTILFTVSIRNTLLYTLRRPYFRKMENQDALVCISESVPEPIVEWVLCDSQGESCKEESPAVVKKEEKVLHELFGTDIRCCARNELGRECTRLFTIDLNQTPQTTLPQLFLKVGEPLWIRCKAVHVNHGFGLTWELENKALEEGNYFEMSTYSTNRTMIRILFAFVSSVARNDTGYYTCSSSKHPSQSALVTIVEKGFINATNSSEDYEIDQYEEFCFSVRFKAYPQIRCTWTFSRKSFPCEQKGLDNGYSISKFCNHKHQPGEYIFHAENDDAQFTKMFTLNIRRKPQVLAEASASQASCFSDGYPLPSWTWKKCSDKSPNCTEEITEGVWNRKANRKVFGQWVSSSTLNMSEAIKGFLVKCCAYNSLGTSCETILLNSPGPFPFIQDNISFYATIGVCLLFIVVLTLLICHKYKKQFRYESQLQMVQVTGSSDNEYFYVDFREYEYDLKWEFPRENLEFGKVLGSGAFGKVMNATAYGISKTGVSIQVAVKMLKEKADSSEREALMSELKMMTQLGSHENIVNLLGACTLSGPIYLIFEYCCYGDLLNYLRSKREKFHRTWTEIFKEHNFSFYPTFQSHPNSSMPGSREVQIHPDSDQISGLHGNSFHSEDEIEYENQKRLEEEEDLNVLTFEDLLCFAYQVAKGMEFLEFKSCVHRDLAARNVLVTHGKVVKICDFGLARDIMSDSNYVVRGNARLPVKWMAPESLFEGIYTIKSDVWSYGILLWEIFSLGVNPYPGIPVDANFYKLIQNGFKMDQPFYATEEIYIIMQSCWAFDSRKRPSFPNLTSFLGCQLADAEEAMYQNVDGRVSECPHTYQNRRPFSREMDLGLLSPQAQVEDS
Method: (§1) Enzyme activity for VEGFR3, VEGFR2 and Flt3 were measured on the Caliper Life Sciences LC3000 (Hopkinton, Mass.). The system utilizes the principle of electroosmotic flow to separate and quantify the amount of phosphorylated-Fluorescein-labelled-peptide (product) from unphosphorylated-Fluorescein-labelled peptide (substrate). The amount of product and substrate are determined by measuring the peak heights from the electropherogram. The enzyme activity is then quantified by dividing the amount of product by the sum of the product and substrate. The inhibitory activity of a sample is measured by comparing the enzyme activity in the presence of sample versus the enzyme activity in the presence of dimethylsufoxide (DMSO). Specific assay conditions for each enzyme are listed below:
(§2) Flt3 assay: The peptide substrate at 1 uM (FITC-AHA-UEAIYAAPFAKKK-CONH2; synthesized at Tufts University, Boston, Mass.) was incubated with 350 uM of ATP, corresponding to the Michaelis-Menten (Km) constant of the enzyme/substrate reaction, and 3 nM of Flt3 (BPS Bioscience; San Diego, Calif.; Cat. No. 40225) for 90 minutes at RT. After 90 minutes, the reaction was stopped by the addition of 10 mM EDTA. The substrate and product were then separated on the LC3000.

VEGFR2 = molecular target: T2, VEGFR2 (Homo sapiens, UniProt P35968); assay: VEGFR2 enzyme activity assay (Caliper LC3000 mobility shift); conditions: 160 uM ATP (Km), 1 nM VEGFR2, 90 minutes at RT
T2 construct: purchased BPS Bioscience; San Diego, Calif; 40301
T2 sequence (P35968 20-1356): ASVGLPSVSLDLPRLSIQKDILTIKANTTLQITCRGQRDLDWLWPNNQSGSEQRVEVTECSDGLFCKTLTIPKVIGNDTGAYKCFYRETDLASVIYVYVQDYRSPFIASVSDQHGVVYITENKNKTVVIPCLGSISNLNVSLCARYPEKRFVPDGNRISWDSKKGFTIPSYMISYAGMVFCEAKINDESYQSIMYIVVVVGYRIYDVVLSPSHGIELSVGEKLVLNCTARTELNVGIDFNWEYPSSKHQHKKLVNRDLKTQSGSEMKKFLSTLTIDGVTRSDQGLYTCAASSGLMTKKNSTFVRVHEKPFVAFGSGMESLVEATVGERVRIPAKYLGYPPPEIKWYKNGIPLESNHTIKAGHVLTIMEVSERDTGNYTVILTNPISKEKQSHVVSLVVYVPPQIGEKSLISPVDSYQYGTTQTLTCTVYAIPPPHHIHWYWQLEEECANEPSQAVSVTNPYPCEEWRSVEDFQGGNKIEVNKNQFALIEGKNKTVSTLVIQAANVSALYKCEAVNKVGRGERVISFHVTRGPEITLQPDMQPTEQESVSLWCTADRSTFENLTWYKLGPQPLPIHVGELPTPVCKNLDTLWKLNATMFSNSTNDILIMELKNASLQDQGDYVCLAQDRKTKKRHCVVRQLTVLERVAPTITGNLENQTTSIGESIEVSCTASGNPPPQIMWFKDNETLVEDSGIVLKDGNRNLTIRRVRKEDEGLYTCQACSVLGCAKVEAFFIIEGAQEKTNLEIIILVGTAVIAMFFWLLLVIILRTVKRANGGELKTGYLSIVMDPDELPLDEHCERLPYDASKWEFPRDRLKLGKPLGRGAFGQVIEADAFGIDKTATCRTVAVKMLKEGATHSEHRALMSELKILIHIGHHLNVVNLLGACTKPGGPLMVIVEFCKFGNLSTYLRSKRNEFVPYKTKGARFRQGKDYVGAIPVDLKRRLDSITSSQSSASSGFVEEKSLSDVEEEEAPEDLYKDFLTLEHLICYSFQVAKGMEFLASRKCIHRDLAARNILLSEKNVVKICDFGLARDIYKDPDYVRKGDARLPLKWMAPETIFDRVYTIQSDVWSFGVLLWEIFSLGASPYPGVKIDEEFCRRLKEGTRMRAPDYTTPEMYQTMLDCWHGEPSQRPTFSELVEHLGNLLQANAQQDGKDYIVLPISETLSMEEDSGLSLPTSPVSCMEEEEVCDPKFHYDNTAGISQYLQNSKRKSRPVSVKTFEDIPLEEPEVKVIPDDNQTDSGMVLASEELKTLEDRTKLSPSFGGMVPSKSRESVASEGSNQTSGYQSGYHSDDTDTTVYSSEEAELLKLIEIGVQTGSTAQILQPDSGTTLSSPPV
Method: as §1
as §2, with “VEGFR2 assay:” for “Flt3 assay:”, “uM (5-FL-EEPLYWSFPAKKK-CONH2;” for “uM (FITC-AHA-UEAIYAAPFAKKK-CONH2;”, “with 160” for “with 350”, “and 1” for “and 3”, “of VEGFR2” for “of Flt3”, “No. 40301)” for “No. 40225)”

VEGFR3 = molecular target: T3, VEGFR3 (Homo sapiens, UniProt P35916); assay: VEGFR3 enzyme activity assay (Caliper LC3000 mobility shift); conditions: 400 uM ATP (Km), 0.4 nM VEGFR3, 90 minutes at RT
T3 construct: purchased Millpore Corp. (Millipore) 14-681
T3 sequence (P35916 25-1363): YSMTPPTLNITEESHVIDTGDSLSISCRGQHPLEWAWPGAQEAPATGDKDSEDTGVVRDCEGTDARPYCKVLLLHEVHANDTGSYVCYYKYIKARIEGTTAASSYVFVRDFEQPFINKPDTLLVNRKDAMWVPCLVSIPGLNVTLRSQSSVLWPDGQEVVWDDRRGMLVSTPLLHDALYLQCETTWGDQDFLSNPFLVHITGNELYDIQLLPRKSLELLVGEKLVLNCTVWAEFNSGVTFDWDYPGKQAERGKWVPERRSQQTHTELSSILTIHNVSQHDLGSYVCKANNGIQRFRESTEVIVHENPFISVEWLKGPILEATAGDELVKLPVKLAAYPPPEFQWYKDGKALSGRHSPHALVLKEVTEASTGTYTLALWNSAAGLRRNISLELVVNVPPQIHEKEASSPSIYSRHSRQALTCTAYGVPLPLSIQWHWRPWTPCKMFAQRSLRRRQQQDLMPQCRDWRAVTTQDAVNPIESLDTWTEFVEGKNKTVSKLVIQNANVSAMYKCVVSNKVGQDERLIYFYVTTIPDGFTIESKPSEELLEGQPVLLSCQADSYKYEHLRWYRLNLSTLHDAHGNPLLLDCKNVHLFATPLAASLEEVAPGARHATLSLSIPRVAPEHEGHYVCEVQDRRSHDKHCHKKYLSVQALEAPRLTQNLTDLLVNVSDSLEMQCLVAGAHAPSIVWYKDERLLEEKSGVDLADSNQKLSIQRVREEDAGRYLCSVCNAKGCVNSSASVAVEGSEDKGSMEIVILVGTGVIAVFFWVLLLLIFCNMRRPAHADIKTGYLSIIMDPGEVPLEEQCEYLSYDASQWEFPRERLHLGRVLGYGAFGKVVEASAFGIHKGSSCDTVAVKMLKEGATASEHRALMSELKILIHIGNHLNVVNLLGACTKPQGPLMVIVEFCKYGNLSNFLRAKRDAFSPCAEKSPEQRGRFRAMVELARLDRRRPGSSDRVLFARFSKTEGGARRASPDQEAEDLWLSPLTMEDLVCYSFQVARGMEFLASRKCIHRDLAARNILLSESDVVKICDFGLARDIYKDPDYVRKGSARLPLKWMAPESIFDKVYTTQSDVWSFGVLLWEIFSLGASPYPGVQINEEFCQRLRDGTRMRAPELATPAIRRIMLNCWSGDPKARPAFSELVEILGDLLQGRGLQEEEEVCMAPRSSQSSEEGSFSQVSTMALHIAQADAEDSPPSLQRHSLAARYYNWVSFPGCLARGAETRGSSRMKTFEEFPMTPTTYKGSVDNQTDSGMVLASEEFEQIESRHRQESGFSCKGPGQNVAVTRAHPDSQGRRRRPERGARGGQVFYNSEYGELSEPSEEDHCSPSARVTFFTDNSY
Method: as §1
VEGFR3 assay: The peptide substrate at 1 uM (FITC-KKKKEEIYFFF-CONH2; synthesized at Tufts University, Boston, Mass.) was incubated with 400 uM of ATP, corresponding to the Michaelis-Menten (Km) constant of the enzyme/substrate reaction, and 0.4 nM of VEGFR3 (Millpore Corp., Cat. No. 14-681) for 90 minutes at RT. After 90 minutes, the reaction was stopped by the addition of 10 mM EDTA. The substrate and product were then separated on the LC3000.

Measured: IC50

COc1ccc(C#Cc2ccnc3[nH]ccc23)cc1 [compound 89]
> 1 µM: all assays above

N#Cc1cncc(C#Cc2ccnc3[nH]ccc23)c1 [compound 91]
> 1 µM: all assays above

C(#Cc1ccnc2[nH]ccc12)c1cccc(-n2cccc2)c1 [compound 92]
> 1 µM: all assays above

C(#Cc1ccnc2[nH]ccc12)c1ncccn1 [compound 93]
> 1 µM: all assays above

Cc1cc(C#Cc2ccnc3[nH]ccc23)ccc1C#N [compound 94]
> 1 µM: all assays above

C#Cc1ccc(C#Cc2ccnc3[nH]ccc23)cc1 [compound 95]
> 1 µM: all assays above

C#Cc1ccnc2[nH]ccc12 [compound 96]
> 1 µM: all assays above

C(#Cc1ncnc2sc3c(c12)CCCC3)c1ccccc1 [compound 97]
> 1 µM: all assays above

C(#Cc1ccnc2[nH]ccc12)c1cccc(-c2ccccc2)c1 [compound 98]
> 1 µM: all assays above

Nc1cccc(C#Cc2ccnc3[nH]ccc23)c1 [compound 99]
> 1 µM: all assays above

N#Cc1ccc(C#Cc2ccnc3[nH]ccc23)cc1 [compound 100]
> 1 µM: all assays above

C(#Cc1ccnc2[nH]ccc12)c1ccccc1-c1cccs1 [compound 101]
> 1 µM: all assays above

CC(C)Oc1cccc(C#Cc2ccnc3[nH]ccc23)c1 [compound 102]
> 1 µM: all assays above

C(#Cc1ccnc2[nH]ccc12)c1cccc(Nc2ccccc2)c1 [compound 104]
> 1 µM: all assays above

FC(F)(F)c1ccccc1C#Cc1cnc2[nH]ccc2c1 [compound 105]
> 1 µM: all assays above

COC(=O)c1cccc(C#Cc2ccnc3[nH]ccc23)n1 [compound 106]
> 1 µM: all assays above

FC(F)Oc1ccc(C#Cc2ccnc3[nH]ccc23)cc1 [compound 107]
> 1 µM: all assays above

C(#Cc1cnc2[nH]ccc2c1)c1ccccc1 [compound 108]
> 1 µM: all assays above

C[Si](C)(C)C#Cc1ncnc2[nH]ccc12 [compound 109]
> 1 µM: all assays above

N#Cc1ccc(C#Cc2ccnc3[nH]ccc23)cn1 [compound 110]
> 1 µM: all assays above

C#Cc1ncnc2[nH]ccc12 [compound 111]
> 1 µM: all assays above

C[Si](C)(C)C#Cc1ncnc2sc3c(c12)CCCC3 [compound 112]
> 1 µM: all assays above

O=C(NCc1ccccc1C#Cc1ccnc2[nH]ccc12)Nc1ccccc1 [compound 113]
> 1 µM: all assays above

Cc1nc(-c2ccc(C#Cc3ccnc4[nH]ccc34)cc2)no1 [compound 114]
> 1 µM: all assays above

CC(=O)c1ccc(C#Cc2ccnc3[nH]ccc23)nc1 [compound 115]
> 1 µM: all assays above

FC(F)(F)c1cccc(C#Cc2ccnc3[nH]ccc23)c1 [compound 116]
> 1 µM: all assays above

Cc1cccc(C)c1C#Cc1ccnc2[nH]ccc12 [compound 117]
> 1 µM: all assays above

NCc1ccccc1C#Cc1ccnc2[nH]ccc12 [compound 118]
> 1 µM: all assays above
